Columns and labels:
[1] = test system: transition of primary CPPs into secondary CPPs; experiment: Nephelometer assay in the presence of serum; type: biochemical, human; conditions: for transition rate of primary CPPs into secondary CPPs (T50): in the presence of the substance, cf. FIG. 2A
Description: Stock Solutions: 1. NaCl-solution: NaCl 140 mM, 2. Calcium solution: CaCl2 40 mM+Hepes 100 mM+NaCI 140 mM, pH adjusted with NaOH 10 mM to 7.40 at 37° C., 3. […] Na2HP04 19.44 mM+NaH2PO4 4.56 mM+Hepes 100 mM+NaCI 140 mM, pH adjusted with NaOH 10 mM to 7.40 at 37° C. […] These pipetting steps were performed in the following order: 1. NaCl-solution: 20 μl/well, 2. serum 80 μl/well, 3. shaking for 1 minute, 4. phosphate solution 50 μl/well, 5. shaking for 1 minute, 6. calcium solution 50 μl/well, shaking for 1 minute. Air bubbles in the wells were disintegrated with a pocket lighter and the 96-well covered with a […] adhesive sealing film for microplates. […] Assay conditions and Nephelostar® settings: measurement in a thermo constant room at 34.5° C. with the internal radiation of the device turned off. This led to an infernal measurement temperature of 36.5° C. to 37° C. The Nephelostar® was operated and controlled via the Nephelostar provider's Galaxy Software on a Windows Computer platform. The assay was performed with 200 cycles of 1.5 seconds measurement time per well and a position delay of 0.1 seconds in horizontal plate reading mode, adding up to a cycle time of 180 seconds/cycle for our Standard assay. This adds up to a total assay run time of 10 hours per assay. […] After completion of the run, data were transferred to Excel® and transposed from lines into columns. Data columns were copied into the GraphPad Prism® program to generate an XY-graph. Data were then processed by calculating nonlinear regression in the “log(agonist) vs. response-variable slope (four Parameters)” mode using the “robust fit” fitting method. The resulting values obtained for T50 and RNUT50 were further processed as required. We chose physiological conditions for temperature (37° C.) and pH (7.40 at 37° C.), and designed the assay for a final volume of 200 μl per well. These 200 μl consisted of 20 μl NaCl 140 mM, 80 μl serum, 50 μl phosphate 24 mM and 50 μl calcium 40 mM solution which were mixed in this order. […]

[2] = test system: transition of primary CPPs into secondary CPPs; experiment: Nephelometry in the absence of serum; type: biochemical; conditions: FIG. 6A

Molecule	transition rate of primary CPPs into secondary CPPs (T50) [1]	further results
[Mg+2] [magnesium]	delayed	
O=S([O-])([O-])=S.[Na+].[Na+] [sodium thiosulfate]		impact on the assay ([1]; spiked to serum in amounts of up to 40 mM): did not have any impact
phosphate	accelerated	
fetuin A: the strongest intrinsic serum calcification inhibitor (protein, UniProt P02765 19-300; P02765 341-367, looked up) Alpha-2-HS-glycoprotein chain … 1: APHGPGLIYRQPNCDDPETEEAALVAIDYINQNLPWGYKHTLNQIDEVKVWPQQPSGELFEIEIDTLETTCHVLDPTPVARCSVRQLKEHAVEGDCDFQLLKLDGKFSVVYAKCDSSPDSAEDVRKVCQDCPLLAPLNDTRVVHAAKAALAAFNAQNNGSNFQLEEISRAQLVPLPPSTYVEFTVSGTDCVAKEATEAAKCNLLAEKQYGFCKATLSEKLGGAEVAVTCMVFQTQPVSSQPQPEGANEAVPTPVVDPDAPPSPPLGAPGLPPAGSPPDSHVL Alpha-2-HS-glycoprotein chain … 2: TVVQPSVGAAAGPVVPPCPGRIRHFKV		influence on the assay (spiked serum components) [2]: significantly influences the assay

Source: patent US9651566B2, “Method for determining the propensity for calcification” (Rheinisch-Westfälische Technische Hochschule Aachen, priority 2011, dated 2017)
